Results as given in ChEMBL document CHEMBL1132845, “Synthesis and potent anticonvulsant activities of 4-oxo-imidazo[1,2-a]inden” (Bioorg Med Chem Lett, 2000).

Key:
Glutamate NMDA receptor = experiment: Binding affinity for N-methyl-D-aspartate glutamate receptor; type: protein-complex assay, Rattus norvegicus
[1] = target: T1, Glutamate receptor ionotropic, AMPA (Rattus norvegicus, UniProt P19490+P19491+P19492+P19493)
Description: Binding affinity for Ionotropic glutamate receptor AMPA

[2] = target: T1, Glutamate receptor ionotropic, AMPA; remark: listed apart in the source
Description: Antagonistic activity against Ionotropic glutamate receptor AMPA using kainate-evoked current in Xenopus oocytes injected with rat brain mRNA

Mus musculus [3] = species: Mus musculus; experiment: Anticonvulsant activity in male CD1 mice; type: functional
Mus musculus [4] = experiment: Anticonvulsant activity against GABA receptor complex after intra peritoneal administration in CD1 mouse
Mus musculus [5] = experiment: Anticonvulsant activity against glutamic acid receptor complex after subcutaneous administration in CD1 mouse; type: functional; settings: sc
Mus musculus [6] = experiment: Effective dose in mouse after i.p. administration; type: functional; settings: ip
Mus musculus [7] = experiment: Effective dose in MES test in mouse after i.v. administration; type: functional; settings: iv
Rattus norvegicus [8] = experiment: Effective dose in MES test in SD rat after s.c. administration; type: functional; settings: sc
Mus musculus [9] = experiment: Anticonvulsant activity after subcutaneous administration in CD1 mouse
Mus musculus [10] = species: Mus musculus; experiment: Compound was tested for the maximal electroshock effect in mice; type: functional
Rattus norvegicus [11] = experiment: Effective dose in MES test in SD rat after i.p. administration; settings: ip
Mus musculus [12] = experiment: Effective dose in MES test in mouse after s.c. administration; type: functional; settings: sc
[13] = target: T1, Glutamate receptor ionotropic, AMPA; experiment: Binding affinity against Ionotropic glutamate receptor AMPA in rat brain
Mus musculus [14] = experiment: Effective dose in MES test in mouse after i.p. administration; settings: ip
Rattus norvegicus [15] = experiment: Effective dose in MES test in SD rat after i.v. administration; type: functional; settings: iv

Compound | IC50 (Glutamate NMDA receptor) | IC50 [1] | IC50 [2] | ED50 (Mus musculus [3]) | further results
O=C(O)c1ccc2c(c1)Cc1c-2nc(O)c2nccn12 | 10000 nM | 620 nM | 2010 nM | > 80 mg/kg | 
O=C(O)c1cccc2c1Cc1c-2nc(O)c2nccn12 | 21000 nM | 3500 nM | 3250 nM |  | 
NS(=O)(=O)c1cccc2c1c([N+](=O)[O-])cc1nc(O)c(O)nc12 [NBQX] |  |  |  | 36 mg/kg | 
O=C(O)Cc1ccc2c(c1)Cc1c-2nc(O)c2nccn12 | > 10000 nM | 10000 nM | 2640 nM |  | 
Oc1nc2c(n3ccnc13)Cc1ccccc1-2 |  |  | 1800 nM | 62 mg/kg | 
O=C(O)Cc1cccc2c1Cc1c-2nc(O)c2nc(C(=O)O)cn12 | 7200 nM | 18 nM | 5 nM | 1.2 mg/kg | ED50 (Mus musculus [4]): 1.7 mg/kg; ED50 (Mus musculus [5]): 1.5 mg/kg; ED50 (Mus musculus [6]): 0.8 mg/kg; ED50 (Mus musculus [7]): 0.5 mg/kg; ED50 (Rattus norvegicus [8]): 1 mg/kg; ED50 (Mus musculus [9]): ~16 mg/kg; ED50 (Mus musculus [10]): ≤ 2 mg/kg; ED50 (Rattus norvegicus [11]): 4.8 mg/kg; ED50 (Mus musculus [12]): 1 mg/kg; IC50 [13]: 4 nM; ED50 (Mus musculus [14]): 1.2 mg/kg; ED50 (Rattus norvegicus [15]): 0.4 mg/kg

More lines, main results first:

IC50 (Glutamate NMDA receptor) | IC50 [1] | IC50 [2] | Compound | ED50 (Mus musculus [3]) | further results
 |  | 230 nM | O=C(O)[C@@H]1C[C@H]2C[C@@H](CCc3nn[nH]n3)CC[C@H]2CN1 [TEZAMPANEL ANHYDROUS] | 4 mg/kg | 
83 nM |  | 29 nM | O=C(O)c1cn2c3c(nc(O)c2n1)-c1ccccc1C3 | 50 mg/kg | 
4100 nM | 450 nM | 53 nM | CC(C(=O)O)c1cccc2c1Cc1c-2nc(O)c2nc(C(=O)O)cn12 (configuration not stated) | 19 mg/kg | 
 |  | 260 nM | O=c1[nH]c2cc(-n3ccnc3)c([N+](=O)[O-])cc2[nH]c1=O [YM-90K] | 12 mg/kg | 
> 10000 nM | 89 nM | 104 nM | O=C(O)Cc1cccc2c1Cc1c-2nc(O)c2nccn12 | > 80 mg/kg | 
> 10000 nM | 611 nM | 214 nM | O=C(O)Cc1ccc2c(c1)Cc1c-2nc(O)c2nc(C(=O)O)cn12 | 16 mg/kg | 
2100 nM | 4 nM | 23 nM | O=C(O)Cc1cn2c3c(nc(O)c2n1)-c1cccc(CC(=O)O)c1C3 | 2 mg/kg | 
